Reference: patent US20250320193A1, “OXOISOINDOLINYL SUBSTITUTED PIPERIDINEDIONE DERIVATIVE AND USE THEREOF” (GLUETACS THERAPEUTICS (SHANGHAI) CO., LTD., priority 2022, published 2025)

How the values were obtained:
[1] = molecular target: human Cereblon WT GST-tagged protein (Homo sapiens (Human), UniProt Q96SW2); assay: CRBN-binding affinity, HTRF (CEREBLON BINDING kit, CISBIO); conditions: HTRF inhibitory activity
Summary of the method: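 HTRF competition format: test compound displaces Thalidomide-Red from GST-tagged human Cereblon WT, detected with a Eu-labelled anti-GST antibody. Percent CRBN binding inhibition was derived from the 620 nm signal, normalized to solvent-control and protein-free blank wells.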

IKZF1 = IKZF1 (Homo sapiens (Human), UniProt Q13422+Q96SW2); assay: Western blot, substrate protein expression in hPBMC: IKZF1; type: cell-based; conditions: hPBMC, compound 500 nM, 24 hours, Western blot
Summary of the method: (§1)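 hPBMC, 1×10^6 cells/mL, 24 h compound exposure; RIPA lysis, BCA protein assay, SDS-PAGE, NC membrane immunoblot. Densitometry vs internal control → % protein remaining; degradation % = 100% − remaining; DC50 = conc. at 50% of DMSO band signal.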

IKZF3 = IKZF3 (Homo sapiens (Human), UniProt Q96SW2+Q9UKT9); assay: Western blot, substrate protein expression in hPBMC: IKZF3; type: cell-based; conditions: hPBMC, compound 500 nM, 24 hours, Western blot
Summary of the method: as §1

GSPT1 = GSPT1 (Homo sapiens (Human), UniProt P15170+Q96SW2); assay: Western blot, substrate protein expression in hPBMC: GSPT1; type: cell-based; conditions: hPBMC, compound 500 nM, 24 hours, Western blot
Summary of the method: as §1

[2] = test system: CAL-62 (human thyroid carcinoma cells); assay: Tumor cell proliferation inhibition, CCK-8; type: cell-based; conditions: CAL-62 cells, CCK-8, read-out: inhibitory activity (IC50, nM) CAL-62
Protocol: (§2) The tumor cells used herein were cultured in a cell culture medium listed in table 2 at 37° C. in an incubator with 5% CO2. Prior to experimentation, all cells used were correctly identified by STR profiling, and tested negative for mycoplasma through routine screenings.
(§3) IC50 values of the compounds of the present disclosure (including the compounds in Table 1 and the Examples 1-305 compounds) were measured using the Meilun Cell Counting Kit-8 kit from Dalian Meilun Biotech Co., Ltd. Assay details are as follows: tumor cells were seeded in a 96-well plate at a density listed in Table 5. After 24 h, 100 μL of the inoculated cells were treated with 0.5 μL of the compounds of the present disclosure (including the compounds in Table 1 and the Examples 1-305 compounds) at 10 different successively decreasing concentrations (starting at the highest concentration of 10 μM; 5-fold serial dilutions). After the cells were treated with the compounds of the present disclosure for a period of time, the cell viability detection reagent was added to the culture medium for cell viability assessment according to the instructions provided with the CCK-8 kit. […] The growth inhibition of the compounds of the present disclosure on cells was plotted by Prism Graphpad software, and the IC50 values of the compounds of the present disclosure were calculated therefrom.

[3] = test system: CCRF-CEM (human acute lymphoblastic leukemia T-cells); assay: Tumor cell proliferation inhibition, CCK-8; type: cell-based; conditions: CCRF-CEM cells, CCK-8, read-out: inhibitory activity (IC50, nM) CCRF-CEM
Protocol: as §2, §3

[4] = test system: H146 cells (human small cell lung carcinoma cells); assay: Tumor cell proliferation inhibition, CCK-8; type: cell-based; conditions: NCI-H146, H146 cells, CCK-8, read-out: inhibitory activity (IC50, nM) H146
Protocol: as §2, §3

[5] = test system: Jurkat cells (human T-cell leukemia cells); assay: Tumor cell proliferation inhibition, CCK-8; type: cell-based; conditions: Jurkat cells, CCK-8, read-out: inhibitory activity (IC50, nM) Jurkat
Protocol: as §2, §3

[6] = test system: MDA-MB-231 cells (human breast adenocarcinoma cells); assay: Tumor cell proliferation inhibition, CCK-8; type: cell-based; conditions: MDA-MB-231 cells, CCK-8, read-out: inhibitory activity (IC50, nM) MDA-MB-231
Protocol: as §2, §3

[7] = test system: MM.1S cells (human multiple myeloma cells); assay: Tumor cell proliferation inhibition, CCK-8; type: cell-based; conditions: MM1.S, MM.1S cells, CCK-8, read-out: inhibitory activity (IC50, nM) MM.1S
Protocol: as §2, §3

[8] = test system: TMD8 cells (human diffuse large B-cell lymphoma cells); assay: Tumor cell proliferation inhibition, CCK-8; type: cell-based; conditions: TMD8 cells, CCK-8, read-out: inhibitory activity (IC50, nM) TMD8
Protocol: as §2, §3

[9] = test system: MM.1R cells (dexamethasone-resistant human multiple myeloma cells); assay: Tumor cell proliferation inhibition, CCK-8; type: cell-based; conditions: MM.1R cells, CCK-8, read-out: inhibitory activity (IC50, nM) MM.1R
Protocol: as §2, §3

Sequence of IKZF1 (Q13422 whole entry): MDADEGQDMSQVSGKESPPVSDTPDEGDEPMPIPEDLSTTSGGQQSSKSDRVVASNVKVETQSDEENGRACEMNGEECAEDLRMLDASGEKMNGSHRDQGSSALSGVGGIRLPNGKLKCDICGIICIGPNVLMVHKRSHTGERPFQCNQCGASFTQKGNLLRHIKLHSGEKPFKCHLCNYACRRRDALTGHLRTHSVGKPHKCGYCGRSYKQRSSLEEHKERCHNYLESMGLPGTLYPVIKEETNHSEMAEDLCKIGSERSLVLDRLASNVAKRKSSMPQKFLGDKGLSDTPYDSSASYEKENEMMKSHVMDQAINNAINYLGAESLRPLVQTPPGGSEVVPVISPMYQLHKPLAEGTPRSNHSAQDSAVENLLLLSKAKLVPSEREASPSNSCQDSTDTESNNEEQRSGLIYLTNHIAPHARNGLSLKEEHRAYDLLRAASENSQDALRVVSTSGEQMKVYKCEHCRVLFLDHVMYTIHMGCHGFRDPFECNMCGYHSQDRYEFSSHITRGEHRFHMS
Sequence of IKZF1 (Q96SW2 whole entry): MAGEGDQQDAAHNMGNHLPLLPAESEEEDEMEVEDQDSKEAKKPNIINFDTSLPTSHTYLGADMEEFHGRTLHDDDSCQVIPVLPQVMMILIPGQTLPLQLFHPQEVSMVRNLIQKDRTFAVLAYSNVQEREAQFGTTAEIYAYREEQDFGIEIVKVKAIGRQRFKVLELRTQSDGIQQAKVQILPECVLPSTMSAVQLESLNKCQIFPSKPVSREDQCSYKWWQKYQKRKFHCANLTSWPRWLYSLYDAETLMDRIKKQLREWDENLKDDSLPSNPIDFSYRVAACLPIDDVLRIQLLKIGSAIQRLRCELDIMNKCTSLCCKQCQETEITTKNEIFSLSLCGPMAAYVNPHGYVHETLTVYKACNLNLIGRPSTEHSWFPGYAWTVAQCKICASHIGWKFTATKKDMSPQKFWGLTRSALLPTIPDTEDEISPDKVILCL
Sequence of IKZF1 (Q16531 whole entry partner): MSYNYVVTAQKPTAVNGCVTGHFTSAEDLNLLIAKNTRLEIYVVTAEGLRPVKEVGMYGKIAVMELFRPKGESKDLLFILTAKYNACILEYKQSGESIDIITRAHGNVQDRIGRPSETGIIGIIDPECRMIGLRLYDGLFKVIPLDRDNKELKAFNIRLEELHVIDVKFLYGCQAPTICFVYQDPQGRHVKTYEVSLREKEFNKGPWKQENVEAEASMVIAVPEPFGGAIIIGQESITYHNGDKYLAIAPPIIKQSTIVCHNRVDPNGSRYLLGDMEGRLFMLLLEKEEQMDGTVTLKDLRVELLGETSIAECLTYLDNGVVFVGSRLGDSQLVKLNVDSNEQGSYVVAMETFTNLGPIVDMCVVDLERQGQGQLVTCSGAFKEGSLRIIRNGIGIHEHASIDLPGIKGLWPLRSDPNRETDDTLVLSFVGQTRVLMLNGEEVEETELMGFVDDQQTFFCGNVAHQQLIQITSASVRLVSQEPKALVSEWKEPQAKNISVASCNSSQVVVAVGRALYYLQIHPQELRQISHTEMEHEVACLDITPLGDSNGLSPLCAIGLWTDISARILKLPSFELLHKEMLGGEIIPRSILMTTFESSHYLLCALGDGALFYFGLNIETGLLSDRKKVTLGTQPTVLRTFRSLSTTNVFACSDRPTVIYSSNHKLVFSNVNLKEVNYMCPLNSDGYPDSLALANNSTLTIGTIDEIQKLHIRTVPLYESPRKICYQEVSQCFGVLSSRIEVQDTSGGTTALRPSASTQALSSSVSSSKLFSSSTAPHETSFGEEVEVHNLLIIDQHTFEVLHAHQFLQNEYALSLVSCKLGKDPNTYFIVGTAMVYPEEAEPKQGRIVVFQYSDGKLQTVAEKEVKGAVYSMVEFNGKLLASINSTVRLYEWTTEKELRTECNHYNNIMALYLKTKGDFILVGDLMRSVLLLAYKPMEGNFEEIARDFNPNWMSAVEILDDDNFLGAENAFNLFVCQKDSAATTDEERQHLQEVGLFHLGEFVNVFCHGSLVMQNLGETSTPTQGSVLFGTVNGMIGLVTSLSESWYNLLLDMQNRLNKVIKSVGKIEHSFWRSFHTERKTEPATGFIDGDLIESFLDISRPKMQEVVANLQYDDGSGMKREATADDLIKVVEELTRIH
Sequence of IKZF3 (Q9UKT9 whole entry): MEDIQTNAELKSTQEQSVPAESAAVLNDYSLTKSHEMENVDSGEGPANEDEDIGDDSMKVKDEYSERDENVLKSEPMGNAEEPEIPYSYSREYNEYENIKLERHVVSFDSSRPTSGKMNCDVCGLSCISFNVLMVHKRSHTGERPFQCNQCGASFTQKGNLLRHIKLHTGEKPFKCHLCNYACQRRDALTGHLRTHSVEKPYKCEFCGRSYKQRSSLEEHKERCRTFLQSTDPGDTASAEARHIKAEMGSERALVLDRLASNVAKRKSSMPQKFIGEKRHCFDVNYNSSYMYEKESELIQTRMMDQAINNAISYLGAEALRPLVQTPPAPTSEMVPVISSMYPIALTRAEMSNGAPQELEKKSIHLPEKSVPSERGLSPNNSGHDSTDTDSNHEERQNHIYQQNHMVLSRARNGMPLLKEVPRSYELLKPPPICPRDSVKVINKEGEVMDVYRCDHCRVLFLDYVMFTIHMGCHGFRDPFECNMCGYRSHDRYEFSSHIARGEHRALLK
Sequence of IKZF3 (Q96SW2 whole entry): as the sequence (Q96SW2 whole entry) above
Sequence of IKZF3 (Q16531 whole entry partner): as the sequence (Q16531 whole entry partner) above
Sequence of human Cereblon WT GST-tagged protein (Q96SW2 whole entry): as the sequence (Q96SW2 whole entry) above
Sequence of GSPT1 (P15170 whole entry): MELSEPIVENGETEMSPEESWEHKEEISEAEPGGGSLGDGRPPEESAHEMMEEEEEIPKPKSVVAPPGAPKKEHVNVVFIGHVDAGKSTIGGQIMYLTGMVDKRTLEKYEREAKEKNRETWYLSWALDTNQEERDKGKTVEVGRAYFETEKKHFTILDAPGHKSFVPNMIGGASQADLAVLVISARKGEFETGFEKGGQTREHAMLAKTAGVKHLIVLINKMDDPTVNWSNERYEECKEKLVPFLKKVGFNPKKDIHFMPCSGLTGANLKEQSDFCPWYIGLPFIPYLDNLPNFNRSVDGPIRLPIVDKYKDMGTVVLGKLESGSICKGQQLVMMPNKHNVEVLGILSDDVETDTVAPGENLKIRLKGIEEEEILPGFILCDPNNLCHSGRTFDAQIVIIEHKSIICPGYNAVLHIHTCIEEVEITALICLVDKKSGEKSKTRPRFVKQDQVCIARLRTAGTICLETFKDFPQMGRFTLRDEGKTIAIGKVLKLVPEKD
Sequence of GSPT1 (Q96SW2 whole entry): as the sequence (Q96SW2 whole entry) above
Sequence of GSPT1 (Q16531 whole entry partner): as the sequence (Q16531 whole entry partner) above

Compound | IC50 [1] | substrate protein remaining % IKZF1 (IKZF1) | substrate protein remaining % IKZF3 (IKZF3) | substrate protein remaining % GSPT1 (GSPT1) | IC50 [2] | IC50 [3] | IC50 [4] | IC50 [5] | IC50 [6] | IC50 [7] | IC50 [8] | IC50 [9]
O=C1CCC(N2Cc3c(ccc(CN4CCC(N(c5ccccc5)c5ccccc5)CC4)c3F)C2=O)C(=O)N1 (stereo not drawn) [GT-04226, 3-(5-((4-(diphenylamino)piperidin-1-yl)methyl)-4-fluoro-1-oxoisoindolin-2-yl)piperidine-2,6-dione] | < 500 nM | A (A represents 0% ≤ substrate protein remaining % ≤ 50%) | A (A represents 0% ≤ substrate protein remaining % ≤ 50%) | A (A represents 0% ≤ substrate protein remaining % ≤ 50%) | < 1 nM | < 1 nM | 1 to 10 nM | < 1 nM | 1 to 10 nM | < 1 nM | 1 to 10 nM | –
O=C1CCC(N2Cc3cc(CN4CCN(C(c5ccccc5)c5cccnc5)CC4)c(F)cc3C2=O)C(=O)N1 (stereo not drawn) [GT-04251, 3-(6-fluoro-1-oxo-5-((4-(phenyl(pyridin-3-yl)methyl)piperazin-1-yl)methyl)isoindolin-2-yl)piperidine-2,6-dione] | < 500 nM | A (A represents 0% ≤ substrate protein remaining % ≤ 50%) | A (A represents 0% ≤ substrate protein remaining % ≤ 50%) | A (A represents 0% ≤ substrate protein remaining % ≤ 50%) | 10 to 50 nM | 10 to 50 nM | 100 to 500 nM | 50 to 100 nM | 100 to 500 nM | 10 to 50 nM | 100 to 500 nM | –
O=C1CCC(N2Cc3c(ccc(CN4CCN(C(c5ccccc5)c5ccncc5)CC4)c3F)C2=O)C(=O)N1 (stereo not drawn) [GT-04247, 3-(4-fluoro-1-oxo-5-((4-(phenyl(pyridin-4-yl)methyl)piperazin-1-yl)methyl)isoindolin-2-yl)piperidine-2,6-dione] | < 500 nM | A (A represents 0% ≤ substrate protein remaining % ≤ 50%) | A (A represents 0% ≤ substrate protein remaining % ≤ 50%) | A (A represents 0% ≤ substrate protein remaining % ≤ 50%) | 50 to 100 nM | 50 to 100 nM | – | – | – | 100 to 500 nM | – | –
O=C1CCC(N2Cc3cc(CN4CCC(N(c5ccccc5)c5ccccc5)CC4)ccc3C2=O)C(=O)N1 (stereo not drawn) [GT-04225, 3-(5-((4-(diphenylamino)piperidin-1-yl)methyl)-1-oxoisoindolin-2-yl)piperidine-2,6-dione] | < 500 nM | A (A represents 0% ≤ substrate protein remaining % ≤ 50%) | A (A represents 0% ≤ substrate protein remaining % ≤ 50%) | A (A represents 0% ≤ substrate protein remaining % ≤ 50%) | < 1 nM | < 1 nM | 1 to 10 nM | < 1 nM | 1 to 10 nM | < 1 nM | 1 to 10 nM | –
O=C1CCC(N2Cc3c(ccc(CN4CCN(C(c5ccccc5)c5cccnc5)CC4)c3F)C2=O)C(=O)N1 (stereo not drawn) [GT-04250, 3-(4-fluoro-1-oxo-5-((4-(phenyl(pyridin-3-yl)methyl)piperazin-1-yl)methyl)isoindolin-2-yl)piperidine-2,6-dione] | < 500 nM | A (A represents 0% ≤ substrate protein remaining % ≤ 50%) | A (A represents 0% ≤ substrate protein remaining % ≤ 50%) | A (A represents 0% ≤ substrate protein remaining % ≤ 50%) | 50 to 100 nM | 50 to 100 nM | – | – | – | 100 to 500 nM | – | –
O=C1CCC(N2Cc3cc(CN4C5CCC4CN(C(c4ccccc4)c4ccccc4)C5)ccc3C2=O)C(=O)N1 (stereo not drawn) [GT-03837, 3-(5-((3-benzhydryl-3,8-diazabicyclo[3.2.1]octan-8-yl)methyl)-1-oxoisoindolin-2-yl)piperidine-2,6-dione] | < 500 nM | B (B represents substrate protein remaining % > 50%) | A (A represents 0% ≤ substrate protein remaining % ≤ 50%) | A (A represents 0% ≤ substrate protein remaining % ≤ 50%) | – | – | – | – | – | 10 to 50 nM | – | 500 to 1000 nM
O=C1CCC(N2Cc3cc(CN4C5CCC4CN(C(c4ccccc4)c4ccccc4)C5)cc(F)c3C2=O)C(=O)N1 (stereo not drawn) [GT-03840, 3-(5-((3-benzhydryl-3,8-diazabicyclo[3.2.1]octan-8-yl)methyl)-7-fluoro-1-oxoisoindolin-2-yl)piperidine-2,6-dione] | 1000 to 1900 nM | – | – | – | – | 10 to 50 nM | – | – | – | – | – | –
O=C1CCC(N2Cc3cc(CN4CCN(C(c5ccccc5)c5cccnc5)CC4)ccc3C2=O)C(=O)N1 (stereo not drawn) [GT-04249, 3-(1-oxo-5-((4-(phenyl(pyridin-3-yl)methyl)piperazin-1-yl)methyl)isoindolin-2-yl)piperidine-2,6-dione] | < 500 nM | A (A represents 0% ≤ substrate protein remaining % ≤ 50%) | A (A represents 0% ≤ substrate protein remaining % ≤ 50%) | A (A represents 0% ≤ substrate protein remaining % ≤ 50%) | 10 to 50 nM | 10 to 50 nM | – | – | – | 500 to 1000 nM | 100 to 500 nM | –
O=C1CCC(N2Cc3cc(CN4CCN(C(c5ccccc5)c5ccncc5)CC4)c(F)cc3C2=O)C(=O)N1 (stereo not drawn) [GT-04248, 3-(6-fluoro-1-oxo-5-((4-(phenyl(pyridin-4-yl)methyl)piperazin-1-yl)methyl)isoindolin-2-yl)piperidine-2,6-dione] | 500 to 1000 nM | A (A represents 0% ≤ substrate protein remaining % ≤ 50%) | B (B represents substrate protein remaining % > 50%) | A (A represents 0% ≤ substrate protein remaining % ≤ 50%) | 10 to 50 nM | 10 to 50 nM | 100 to 500 nM | 50 to 100 nM | 100 to 500 nM | 50 to 100 nM | – | –
O=C1CCC(N2Cc3cc(CN4CCN(C(c5ccccc5)c5ccncc5)CC4)ccc3C2=O)C(=O)N1 (stereo not drawn) [GT-04205, 3-(1-oxo-5-((4-(phenyl(pyridin-4-yl)methyl)piperazin-1-yl)methyl)isoindolin-2-yl)piperidine-2,6-dione] | < 500 nM | A (A represents 0% ≤ substrate protein remaining % ≤ 50%) | A (A represents 0% ≤ substrate protein remaining % ≤ 50%) | A (A represents 0% ≤ substrate protein remaining % ≤ 50%) | 10 to 50 nM | 50 to 100 nM | – | 500 to 1000 nM | – | 100 to 500 nM | 50 to 100 nM | –
O=C1CCC(N2Cc3cc(CN4CCC(N(c5ccccc5)c5ccccc5)CC4)c(F)cc3C2=O)C(=O)N1 (stereo not drawn) [GT-04227, 3-(5-((4-(diphenylamino)piperidin-1-yl)methyl)-6-fluoro-1-oxoisoindolin-2-yl)piperidine-2,6-dione] | 500 to 1000 nM | A (A represents 0% ≤ substrate protein remaining % ≤ 50%) | A (A represents 0% ≤ substrate protein remaining % ≤ 50%) | A (A represents 0% ≤ substrate protein remaining % ≤ 50%) | < 1 nM | < 1 nM | 1 to 10 nM | < 1 nM | 1 to 10 nM | < 1 nM | 1 to 10 nM | –
